Paper PMC12144419, “Early preclinical development of Mycobacteriumtuberculosis amino acid biosynthesis pathway inhibitor DRILS-1398 as a potential anti-TB drug” (iScience, 2025)
Values joined by “and” are separate entries in the source; they are usually repeats but may differ in a detail not shown here. Equal entries are not always repeated. “Also recorded” adds a separate entry of the source.

Legend:
[1] = target: M.tb chorismate mutase (M.tb-CM) (Mycobacterium tuberculosis, UniProt P9WIB9); assay: CM assay (in vitro substrate competition enzymatic assay, chorismate to prephenate, OD 274 nm); assay type: biochemical
Method: The activity of the CM enzyme was based on direct observation of the conversion of chorismate to prephenate at OD 274 nm.[32] The reaction volume of the assay was maintained at 100 μl. 1mM of the substrate, chorismic acid (Sigma) was pre-incubated at 37°C for 5 min in the buffer (containing 50mM Tris-HCl (pH 7.5), 0.5mM EDTA, 0.1 mg/mL bovine serum albumin, and 10 mM β-Mercaptoethanol). The reaction was started by adding 180 pmol of CM enzyme to the prewarmed chorismic acid solution. Inhibitory screening of the compounds against CM activity was measured at 100 nM to 50 μM concentration of the effectors. The reaction was allowed to proceed at 37°C and was terminated after 5 min with 100 μl of 1 N HCl. Disappearance of substrate was measured at 274 nm. A blank with no enzyme for every reaction was kept as a control to account for the non-enzymatic conversion of chorismate to prephenate.

in vitro = in vitro ADME; settings: mouse, plasma
Method: DRILS-1398 (5μM) was added to both sides of the membrane in an equilibrium dialysis system. Species-specific plasma (50% or 100%) was added to one side, and the system was allowed to reach equilibrium at 37 °C. LC-MS/MS measurements of compound concentration were performed on both sides of the membrane and the fraction of unbound compound was presented.[52]

M.tb H37Rv cells = assay: In vitro amino acid supplementation (rescue) growth experiment; assay type: cell-based, Mycobacterium tuberculosis; settings: amino acid 100 μg/mL
M.tb H37Rv [2] = assay: In vivo efficacy study, M.tb H37Rv infected mice (CFU in lung and spleen); settings: 10-50 mg/kg on alternate days for four weeks
CYP 2D6 = CYP 2D6 (Homo sapiens, UniProt P10635); assay: biochemical
Method: (§1) This study performed CYP inhibition assay using Vivid CYP P450 (1A2, 2C9, 2C19, 2D6, and 3A4) blue screening kits.[56] […] The fluorescent reading was taken using a microplate reader at excitation/emission wavelengths of 415/460 nm, respectively. The % of CYP inhibition of test/positive control at each tested concentration was calculated, and the IC50 value against each CYP isoform was plotted using Graph pad prism software.

[3] = tested on: intracellular M.tb H37Rv (ATCC 27294) in activated THP-1 macrophages; assay: Intracellular efficacy THP-1 macrophage assay, M.tb H37Rv ATCC 27294
Method: The THP-1 cells were activated with PMA (phorbol 12-myristate-13-acetate) for differentiation into macrophages. After 72 hr of activation, the THP-1 macrophages were infected with M.tb H37Rv strain (ATCC-27294 and ATCC-35825) at a multiplicity of infection (MOI) of 1:10.[34]^,[35] The macrophage infection was allowed for 2 hrs at 37°C with 5% CO2. The media containing M.tb was discarded, and macrophage monolayers were washed twice with phosphate-buffered saline to remove the extracellular bacteria and replenished with fresh, complete RPMI. The M.tb-infected macrophages were exposed to compounds by transferring 200 μL of fresh media containing the respective concentrations of the compounds. Duplicate wells were lysed (0.05% SDS) at specific time points and enumerated to estimate the numbers of intracellular M.tb 2 hr post-infection. The 0.1 mL of lysate was serially diluted and plated onto Middle brook 7H11 agar plates for enumeration (read after 3 to 4 weeks) of live M.tb after compound treatment. After 3 and 7 day exposure to the compounds, the cells were treated the same way, and the live M.tb was enumerated. The efficacy of the test compound was assessed by comparing the M.tb counts from the respective days to day 0 and day 7.

[4] = tested on: Salmonella typhimurium TA98, TA100 and TA1537; assay: Bacterial reverse mutation test (Ames); settings: 3000.0, 949.5, 300.0, 94.9 and 30.0 μg/plate, with and without rat liver S9
CYP 3A4 = CYP 3A4 (Homo sapiens, UniProt P08684); assay: biochemical
Method: as §1

CYP 2C19 = CYP 2C19 (Homo sapiens, UniProt P33261); assay: biochemical
Method: as §1

[5] = tested on: intracellular MDR-M.tb H37Rv (ATCC 35825) in activated THP-1 macrophages; assay: Intracellular efficacy THP-1 macrophage assay, MDR-M.tb ATCC 35825; assay type: cell-based, Mycobacterium tuberculosis
M.tb. ATCC-27294 strain = assay: MIC against M.tb ATCC-27294; assay type: cell-based; settings: Mycobacterium tuberculosis, ATCC27294
[6] = Single-dose IV pharmacokinetics in male BALB/c mice; assay type: in vivo; settings: mouse, 10 mg/kg
Method: The intravenous (IV) (10 mg/kg of DRILS-1398) dosing study on BALB/c male mice (n=3 per time point, not more than 2 bleeds per animal, total animals dosed n=12) was carried out on the following time points through saphenous veins; IV: 15 mins, 30 mins, 1, 2, 4, 6, 8 and 24 hr. Collected blood specimens were centrifuged at 6000rpm, 4°C for 10 minutes, and plasma was separated and stored at -80°C until analysis. […] Concentrations of analyte DRILS-1398 in mice plasma samples were determined using the Shimadzu LCMS-8045 LC-MS/MS system. The protocol was approved by the Institutional Animal Ethics Committee of the Preclinical Research Department, Anthem Biosciences Pvt. Ltd., Bangalore 560099, India (protocol number for 10 mg/kg IV PK study: ABD-7967B (ABD/IAEC/PR/89-17-20).

M.tb H37Rv [7] = assay: Histopathology (H&E, ZN stain) of lungs of infected mice
CYP 1A2 = CYP 1A2 (Homo sapiens, UniProt P05177); assay: Vivid CYP inhibition, fluorescent substrate method
Method: as §1

[8] = Repeated dose 7-day toxicity study; assay type: in vivo, BALB/c mice
Method: As per the guideline,[58]^,[59] 40 males and 40 females were assigned into four groups of ten animals/sex per group viz., Vehicle control (G1), Low dose (G2), Mid Dose (G3) and High dose (G4). The test item formulations were prepared freshly in Ultra-pure water type 1 as a vehicle. The vehicle alone was administered to the vehicle control (G1) animals. Test item formulations were administered daily once at dose levels of 125 (G2), 250 (G3) and 500 (G4) mg/kg b.w./day. All the animals were administered a dose volume of 10 mL/kg b.w. once daily for 7 consecutive days. All the animals were observed once daily for clinical signs, twice daily for mortality/morbidity, and on day 7 for detailed clinical examination. Body weights and feed consumption were recorded at weekly intervals. At the end of the experimental period (day 8), blood and harvested plasma specimens were analyzed for haematology and clinical chemistry parameters, respectively. Subsequently, the animals were euthanized and subjected to gross pathological examination. The specified organs were collected and preserved in 10% NBF for histopathological evaluation. The protocol was approved by the Institutional Animal Ethics Committee of the Preclinical Research Department, Anthem Biosciences Pvt. Ltd., Bangalore 560099, India. Study no: N23041 (ABD/IAEC/PR/296-23-24).

[9] = up to 500 mg/kg b.w./day, 7 days

Chain of M.tb chorismate mutase (M.tb-CM) (P9WIB9 34-199): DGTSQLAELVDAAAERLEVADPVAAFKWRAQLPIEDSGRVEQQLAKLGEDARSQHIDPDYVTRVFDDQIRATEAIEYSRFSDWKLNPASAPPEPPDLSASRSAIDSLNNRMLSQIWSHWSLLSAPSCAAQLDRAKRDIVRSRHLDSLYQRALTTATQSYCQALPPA
Chain of CYP 1A2 (P05177 whole entry): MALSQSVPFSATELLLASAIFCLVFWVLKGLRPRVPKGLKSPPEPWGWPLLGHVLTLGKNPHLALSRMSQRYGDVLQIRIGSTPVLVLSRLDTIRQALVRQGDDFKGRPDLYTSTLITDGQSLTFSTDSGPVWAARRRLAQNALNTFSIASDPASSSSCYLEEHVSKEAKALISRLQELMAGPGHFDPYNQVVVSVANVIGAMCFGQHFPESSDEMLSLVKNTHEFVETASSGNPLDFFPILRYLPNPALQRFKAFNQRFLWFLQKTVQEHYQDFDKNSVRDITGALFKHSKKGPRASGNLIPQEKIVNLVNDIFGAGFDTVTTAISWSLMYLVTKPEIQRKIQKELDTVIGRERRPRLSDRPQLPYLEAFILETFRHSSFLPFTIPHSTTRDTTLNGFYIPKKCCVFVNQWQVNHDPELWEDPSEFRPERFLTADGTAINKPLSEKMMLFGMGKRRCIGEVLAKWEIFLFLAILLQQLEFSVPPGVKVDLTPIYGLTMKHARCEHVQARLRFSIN
Chain of CYP 2C19 (P33261 whole entry): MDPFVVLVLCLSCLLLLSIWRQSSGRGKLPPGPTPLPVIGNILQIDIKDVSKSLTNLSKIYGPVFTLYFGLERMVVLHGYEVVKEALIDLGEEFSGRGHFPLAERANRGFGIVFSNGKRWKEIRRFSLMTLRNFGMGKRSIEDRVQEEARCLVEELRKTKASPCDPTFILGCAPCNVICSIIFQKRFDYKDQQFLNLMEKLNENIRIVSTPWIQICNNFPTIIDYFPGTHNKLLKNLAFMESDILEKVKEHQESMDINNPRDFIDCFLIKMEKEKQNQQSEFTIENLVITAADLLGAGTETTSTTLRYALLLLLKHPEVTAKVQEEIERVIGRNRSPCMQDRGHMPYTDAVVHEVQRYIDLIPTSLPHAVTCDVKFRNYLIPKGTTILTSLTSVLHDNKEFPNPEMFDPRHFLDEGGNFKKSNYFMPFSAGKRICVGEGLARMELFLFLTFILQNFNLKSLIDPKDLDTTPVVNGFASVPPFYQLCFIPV
Chain of CYP 2D6 (P10635 whole entry): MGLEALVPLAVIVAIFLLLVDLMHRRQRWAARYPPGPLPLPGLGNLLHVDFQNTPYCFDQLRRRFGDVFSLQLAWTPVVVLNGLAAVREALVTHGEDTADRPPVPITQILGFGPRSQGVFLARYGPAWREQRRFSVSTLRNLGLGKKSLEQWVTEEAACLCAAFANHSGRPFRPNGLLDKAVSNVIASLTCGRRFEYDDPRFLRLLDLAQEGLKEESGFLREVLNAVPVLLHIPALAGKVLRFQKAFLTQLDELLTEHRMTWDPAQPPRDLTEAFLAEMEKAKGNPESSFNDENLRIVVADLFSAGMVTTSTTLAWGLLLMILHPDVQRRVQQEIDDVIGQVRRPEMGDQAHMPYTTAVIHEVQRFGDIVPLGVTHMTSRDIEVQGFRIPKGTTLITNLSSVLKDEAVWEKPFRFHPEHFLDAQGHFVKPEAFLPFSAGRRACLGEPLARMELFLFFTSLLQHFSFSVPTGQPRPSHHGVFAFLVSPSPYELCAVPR
Chain of CYP 3A4 (P08684 whole entry): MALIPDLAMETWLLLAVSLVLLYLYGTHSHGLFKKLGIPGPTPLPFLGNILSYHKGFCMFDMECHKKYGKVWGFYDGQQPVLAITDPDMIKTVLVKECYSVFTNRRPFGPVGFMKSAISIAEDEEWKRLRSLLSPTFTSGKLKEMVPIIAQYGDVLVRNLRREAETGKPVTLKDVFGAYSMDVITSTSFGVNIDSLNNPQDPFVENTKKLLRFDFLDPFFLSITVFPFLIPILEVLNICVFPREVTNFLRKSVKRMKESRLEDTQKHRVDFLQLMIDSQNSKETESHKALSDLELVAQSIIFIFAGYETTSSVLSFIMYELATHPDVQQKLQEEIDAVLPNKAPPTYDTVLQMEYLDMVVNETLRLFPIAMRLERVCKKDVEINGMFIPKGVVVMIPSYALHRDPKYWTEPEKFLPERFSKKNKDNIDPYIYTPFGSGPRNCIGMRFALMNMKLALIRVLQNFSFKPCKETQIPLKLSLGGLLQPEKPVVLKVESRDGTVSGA

## CCCc1nn(C)c2c(-c3c[nH]c4ccc(Cl)cc34)nc(-c3ccc(Cl)cc3)nc12 [DRILS-1398]
[1]; IC50, inhibition of M.tb-CM activity, n = 3
  IC50: 3 µM and ~3 µM
[1]; read-out: IC90, inhibition of M.tb-CM activity
  IC90: 10 µM
In vitro
  fraction unbound at 5 µM: ~0.0184
M.tb H37Rv cells; 4 μg/mL compound, until 96 h
  Growth of M.tb H37Rv with compound, amino acids added after 24 h: showed inhibitory effects up to 24 h
M.tb H37Rv cells; ~10 μM compound, 24-96 h
  Growth of M.tb H37Rv with compound and tyrosine or phenylalanine added at time 0: amino acid supplementation rescued the cells from the inhibitory effects
M.tb H37Rv [2]
  Clearance of M.tb H37Rv infection in lungs and spleen (CFU): successful in clearing M.tb infection from the lungs and spleen; also recorded: effectively cleared
CYP 2D6
  IC50: > 30 µM
[3]; Fig 4B, day 3, C1: DRILS-1398 15 μM, rifampicin 13.16 μM
  cfu reduction vs day-3 control: 0.59 log10 cfu/mL
[3]; Fig 4B, day 7, C1: DRILS-1398 15 μM, rifampicin 13.16 μM
  cfu reduction vs day-7 control: 1.00 log10 cfu/mL
[3]; Fig 4D, day 3, DRILS-1398 15 μM, rifampicin 19.45 μM, alone or combined
  cfu reduction vs day 3 control, combination study: 0.42 log10 cfu/mL
[3]; Fig 4D, day 7, DRILS-1398 15 μM, rifampicin 19.45 μM, alone or combined
  cfu reduction vs day 7 control, combination study: 0.98 log10 cfu/mL
[4]
  Mutagenic potential: did not show any mutagenic potential; also recorded: non-mutagenic
CYP 3A4
  IC50: > 30 µM
CYP 2C19
  IC50: 13.7 µM
[5]; Fig 4C, day 3, C1: DRILS-1398 15 μM, rifampicin 13.16 μM
  cfu reduction vs day-3 control: 0.40 log10 cfu/mL
[5]; Fig 4C, day 7, C1: DRILS-1398 15 μM, rifampicin 13.16 μM
  cfu reduction vs day-7 control: 0.70 log10 cfu/mL
[5]; Fig 4E, day 7, DRILS-1398 15 μM, rifampicin 19.45 μM, alone or combined
  cfu reduction vs day 7 control, combination study: 0.77 log10 cfu/mL
M.tb. ATCC-27294 strain; M.tb ATCC-27294
  MIC: 6.53 µg/mL
M.tb. ATCC-27294 strain; M.tb ATCC-27294, converted
  MIC: ~15 µM
[6]; in vivo
  Approximate free drug concentration in blood plasma: ~0.4 µM
  clearance: 35 mL/min/kg
[6]; plasma, IV 10 mg/kg
  half-life: ~8.25 h
M.tb H37Rv [7]; DRILS-1398 and DRILS-1398(F) 30 mg/kg, isoniazid 5 mg/kg
  Granuloma in the lung: no signs of granuloma
M.tb H37Rv [7]; Table S4, lung of infected treated mice
  Granuloma: -
M.tb H37Rv [7]; mouse, in vivo
  Necrosis of the lung tissue: not observed
M.tb H37Rv [7]; vs infected mice without drug
  Acid-fast bacilli load in lung, ZN staining: significant decrease in bacilli load
CYP 1A2
  IC50: > 30 µM
[8]; oral gavage up to 500 mg/kg b.w./day once daily for 7 days, both genders
  Clinical signs of toxicity, mortality/morbidity: no adverse clinical signs of toxicity and mortality/morbidity
[8]; [9]
  Effects on body weight, weight gain, feed consumption, hematological and clinical chemistry parameters: No treatment-related adverse effects
  Histopathological evaluation of examined tissues: no treatment-related adverse effects
